Source: patent US20080200536A1, “Pharmaceutical Formulation with High Stability and Dissolution and Manufacturing Process” (BORAM PHARM.CO., LTD, priority 2005, published 2008)

Test: Dissolution rate of orlistat powder raw material
Type: physicochemical
Method: Orlistat is a drug having a melting point as low as 43° C., and is commercially available in a powder form. The dissolution rate of orlistat undergoing no denaturation under good storage conditions is about 60%. […] In addition, when raw materials of orlistat are exposed to high temperature during transport, the powder particles of orlistat rapidly aggregate. Thereafter, the aggregates remain even when being cooled, causing damage to the dissolution of orlistat.

dissolution rate (orlistat raw material exposed to high temperature during transport, particles aggregated): ≤ 40%
dissolution rate (orlistat undergoing no denaturation under good storage conditions): about 60%
Compound: CCCCCCCCCCC[C@@H](C[C@@H]1OC(=O)[C@H]1CCCCCC)OC(=O)[C@H](CC(C)C)NC=O [orlistat]
